Reference: patent US8192962B2, “Processes for detecting toxic substances” (Daikin Industries, Ltd., priority 2001, dated 2012)

System: Genes belonging to other category
Test: DNA chip mRNA expression in yeast, genes belonging to other category (Table 9)
Format: cell-based, Saccharomyces cerevisiae S288C
Method in brief: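 S. cerevisiae S288C grown at 25° C. in YPD to log phase, then exposed 2 h to a toxicant at a growth-inhibiting, non-lethal concentration; untreated cells as control. Poly(A) mRNA reverse-transcribed with Cy3-dUTP or Cy5-dUTP, hybridized >12 h at 65° C. to whole-genome yeast DNA chip; value = fluorescence ratio treated/untreated.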

[Cl][Cd][Cl] [(2), CdCl2]
The level of expressed mRNA in the presence of chemical substance/The level of expressed mRNA in the absence of chemical substance (yeast gene YAR010C): 1.2 | The level of expressed mRNA in the presence of chemical substance/The level of expressed mRNA in the absence of chemical substance (yeast gene YBL005W-A): 0.9 | The level of expressed mRNA in the presence of chemical substance/The level of expressed mRNA in the absence of chemical substance (yeast gene YBL041W): 1.4 | The level of expressed mRNA in the presence of chemical substance/The level of expressed mRNA in the absence of chemical substance (yeast gene YBL043W): 1.2 | The level of expressed mRNA in the presence of chemical substance/The level of expressed mRNA in the absence of chemical substance (yeast gene YBL078C): 2.7 | The level of expressed mRNA in the presence of chemical substance/The level of expressed mRNA in the absence of chemical substance (yeast gene YBR214W): 2.1 | The level of expressed mRNA in the presence of chemical substance/The level of expressed mRNA in the absence of chemical substance (yeast gene YCL020W): 2.5 | The level of expressed mRNA in the presence of chemical substance/The level of expressed mRNA in the absence of chemical substance (yeast gene YCL027W): 2.0 | The level of expressed mRNA in the presence of chemical substance/The level of expressed mRNA in the absence of chemical substance (yeast gene YCR004C): 1.0 | The level of expressed mRNA in the presence of chemical substance/The level of expressed mRNA in the absence of chemical substance (yeast gene YCR071C): 0.7 | The level of expressed mRNA in the presence of chemical substance/The level of expressed mRNA in the absence of chemical substance (yeast gene YCR088W): 1.1 | The level of expressed mRNA in the presence of chemical substance/The level of expressed mRNA in the absence of chemical substance (yeast gene YDL008W): 1.0 | The level of expressed mRNA in the presence of chemical substance/The level of expressed mRNA in the absence of chemical substance (yeast gene YDL238C): 1.0 | The level of expressed mRNA in the presence of chemical substance/The level of expressed mRNA in the absence of chemical substance (yeast gene YDR055W): 2.1 | The level of expressed mRNA in the presence of chemical substance/The level of expressed mRNA in the absence of chemical substance (yeast gene YDR084C): 0.9 | The level of expressed mRNA in the presence of chemical substance/The level of expressed mRNA in the absence of chemical substance (yeast gene YDR085C): 1.8 | The level of expressed mRNA in the presence of chemical substance/The level of expressed mRNA in the absence of chemical substance (yeast gene YDR104C): 1.1 | The level of expressed mRNA in the presence of chemical substance/The level of expressed mRNA in the absence of chemical substance (yeast gene YDR115W): 0.9 | The level of expressed mRNA in the presence of chemical substance/The level of expressed mRNA in the absence of chemical substance (yeast gene YDR259C): 1.0 | The level of expressed mRNA in the presence of chemical substance/The level of expressed mRNA in the absence of chemical substance (yeast gene YDR315C): 1.4 | The level of expressed mRNA in the presence of chemical substance/The level of expressed mRNA in the absence of chemical substance (yeast gene YDR358W): 1.1 | The level of expressed mRNA in the presence of chemical substance/The level of expressed mRNA in the absence of chemical substance (yeast gene YDR388W): 0.7 | The level of expressed mRNA in the presence of chemical substance/The level of expressed mRNA in the absence of chemical substance (yeast gene YDR432W): 0.8 | The level of expressed mRNA in the presence of chemical substance/The level of expressed mRNA in the absence of chemical substance (yeast gene YDR481C): 2.3 | The level of expressed mRNA in the presence of chemical substance/The level of expressed mRNA in the absence of chemical substance (yeast gene YDR510W): 1.3 | The level of expressed mRNA in the presence of chemical substance/The level of expressed mRNA in the absence of chemical substance (yeast gene YEL042W): 0.9 | The level of expressed mRNA in the presence of chemical substance/The level of expressed mRNA in the absence of chemical substance (yeast gene YEL066W): 2.9 | The level of expressed mRNA in the presence of chemical substance/The level of expressed mRNA in the absence of chemical substance (yeast gene YER039C): 1.2 | The level of expressed mRNA in the presence of chemical substance/The level of expressed mRNA in the absence of chemical substance (yeast gene YER107C): 0.5 | The level of expressed mRNA in the presence of chemical substance/The level of expressed mRNA in the absence of chemical substance (yeast gene YER130C): 1.6 | The level of expressed mRNA in the presence of chemical substance/The level of expressed mRNA in the absence of chemical substance (yeast gene YFL022C): 0.9 | The level of expressed mRNA in the presence of chemical substance/The level of expressed mRNA in the absence of chemical substance (yeast gene YFL028C): 1.1 | The level of expressed mRNA in the presence of chemical substance/The level of expressed mRNA in the absence of chemical substance (yeast gene YFL043C): 1.2 | The level of expressed mRNA in the presence of chemical substance/The level of expressed mRNA in the absence of chemical substance (yeast gene YGL158W): 2.8 | The level of expressed mRNA in the presence of chemical substance/The level of expressed mRNA in the absence of chemical substance (yeast gene YGL229C): 0.7 | The level of expressed mRNA in the presence of chemical substance/The level of expressed mRNA in the absence of chemical substance (yeast gene YGR136W): 1.2 | The level of expressed mRNA in the presence of chemical substance/The level of expressed mRNA in the absence of chemical substance (yeast gene YGR189C): 0.9 | The level of expressed mRNA in the presence of chemical substance/The level of expressed mRNA in the absence of chemical substance (yeast gene YGR213C): 2.9 | The level of expressed mRNA in the presence of chemical substance/The level of expressed mRNA in the absence of chemical substance (yeast gene YGR257C): 0.8 | The level of expressed mRNA in the presence of chemical substance/The level of expressed mRNA in the absence of chemical substance (yeast gene YHR004C): 1.1 | The level of expressed mRNA in the presence of chemical substance/The level of expressed mRNA in the absence of chemical substance (yeast gene YHR071W): 1.1 | The level of expressed mRNA in the presence of chemical substance/The level of expressed mRNA in the absence of chemical substance (yeast gene YHR139C): 4.6 | The level of expressed mRNA in the presence of chemical substance/The level of expressed mRNA in the absence of chemical substance (yeast gene YHR142W): 0.8 | The level of expressed mRNA in the presence of chemical substance/The level of expressed mRNA in the absence of chemical substance (yeast gene YIL123W): 0.5 | The level of expressed mRNA in the presence of chemical substance/The level of expressed mRNA in the absence of chemical substance (yeast gene YIL140W): 1.0 | The level of expressed mRNA in the presence of chemical substance/The level of expressed mRNA in the absence of chemical substance (yeast gene YJL073W): 0.8 | The level of expressed mRNA in the presence of chemical substance/The level of expressed mRNA in the absence of chemical substance (yeast gene YJL089W): 1.5 | The level of expressed mRNA in the presence of chemical substance/The level of expressed mRNA in the absence of chemical substance (yeast gene YJL116C): 1.8 | The level of expressed mRNA in the presence of chemical substance/The level of expressed mRNA in the absence of chemical substance (yeast gene YJR004C): 0.8 | The level of expressed mRNA in the presence of chemical substance/The level of expressed mRNA in the absence of chemical substance (yeast gene YJR086W): 1.1
